Measured values published in patent US20170107254A1, “Modified Antimicrobial Peptides” (priority 2014, published 2017).
Converted amounts (≈) assume the structure as drawn. Read-outs that look alike come from different tables or passages of the source.

Tests used:
C. albicans SC5314 [1] = format: cell-based
Procedure: 1×RPMI-1640 Buffered with Citrate Phosphate Buffer
Citrate phosphate buffer was prepared by mixing 0.1 M citric acid and 0.2 M dibasic sodium phosphate dodecahydrate in the proportions indicated in the Table 2 and the volume adjusted to 90 ml with dH2O.
pH buffered medium was prepared by dissolving 1.04 g RPMI-1640 premix powder in 10 ml citrate phosphate buffer. The volume was then adjusted to 40 ml with dH2O and the pH adjusted by addition of the acid or base. The volume was adjusted to 50 ml with dH2O. The medium was then filter sterilized by vacuum filtration through a 0.2 μm filter and stored at 4° C. and kept for up to 2 weeks.
The pH of RPMI-1640 was altered, using citrate phosphate buffer, to reflect the more acidic pH environment in the oral cavity. NP319 and NP377 were active against C. albicans SC5314 from pH 5.5-7.0 (Table 2). For all AMPs tested the optimum pH for activity was pH 5.5. NP377 maintained activity at 2 μg/ml from pH 5.5-7 with reduced activity at pH 5.

C. albicans SC5314 [2] = assay: MIC in the presence of 10% sterile filtered human saliva; format: cell-based
Procedure: AMPs of the same sequence length were tested versus C. albicans SC5314 in the presence of 10% (v/v) filtered human saliva at pH 7.0. Positive control is 1×RPMI-1640+cells, no peptide. Data is expressed as percentage of the positive growth controls. Data is the mean±standard error of the mean. (n=3)
Determination of Minimum Inhibitory Concentration (MIC) in Presence of Sterile Filtered Saliva
To test if saliva protease could result in a reduction in AMP antifungal activity against C. albicans, antifungal susceptibility testing was conducted in the presence of 10% (v/v) sterile filtered human saliva.

in vitro = settings: human, A549 cells
Procedure: The cell lines A549 (Human Lung Adenocarcinoma Epithelial Cell Line) and HepG2 (Human Hepatocellular Carcinoma Cell Line) were purchased from ATCC. A549 cells were maintained in F-12K medium (Gibco) containing 10% foetal bovine serum (Life Technologies) and 1% penicillin/streptomycin (Life Technologies) and HepG2 cells were maintained in Dulbecco's modified eagles medium (Gibco) containing 10% foetal bovine serum (Life Technologies), penicillin/streptomycin (Life Technologies) and 1% 0.01 mg/ml human transferrin (Sigma). Both were incubated at 37° C. with 5% CO2 until cells reached >80% confluence before splitting or experimental use.
Before exposure to peptides, the plate was incubated at 37° C. with 5% CO2 overnight to allow cells adhere. […] Medium was removed from the plate containing cells and peptide dilutions were transferred to cells and incubated for a further 3 h at 37° C. with 5% CO2. Cytotoxicity was determined by LIVE/DEAD® Viability/Cytotoxicity kit (Invitrogen Life Technologies), a working solution of 2 μM calcein AM and 4 μM EthD-1 and in conjunction Alamar Blue at a final concentration of 10% was added to the wells. Cells without peptides were the negative control and 1% DMSO was the positive control. Cells were incubated for 3 h again at 37° C. with 5% CO2.

[3] = test system: human red blood cells (hRBC); assay: Haemolysis of human red blood cells; settings: at 2500 μg/ml, 3 h
Procedure: Peptides were tested for their haemolytic activity against human red blood cells (hRBC). Fresh hRBCs collected in BD Vacutainer® tubes with EDTA were rinsed 3 times with PBS (pH 7.4) by centrifugation for 10 min at 800 g and resuspended, 1 in 10 diluted with PBS. […] Release of haemoglobin was then calculated by transferring supernatant to a flat bottomed 96-well plate and measuring absorbance at 578 nm. hRBCs with no peptides added and H2O provided the controls.

With N=C(N)NCCC[C@@H](N)C(=O)N[C@H](CCCNC(=N)N)C(=O)N[C@H](CCCNC(=N)N)C(=O)N[C@H](CCCNC(=N)N)C(=O)N[C@H](CCCNC(=N)N)C(=O)N[C@H](CCCNC(=N)N)C(=O)N[C@H](CCCNC(=N)N)C(=O)N[C@H](CCCNC(=N)N)C(=O)N[C@H](CCCNC(=N)N)C(=O)N[C@H](CCCNC(=N)N)C(=O)N[C@H](CCCNC(=N)N)C(=O)N[C@H](CCCNC(=N)N)C(=O)N[C@H](CCCNC(=N)N)C(=O)N[C@H](Cc1c[nH]cn1)C(=O)N[C@H](Cc1c[nH]cn1)C(N)=O [NP377, dRdRdRdRdRdRdRdRdRdRdRdRdRdHdH-CONH] the “concentration at which activity was maintained” value (C. albicans SC5314 [1]; from pH 5.5-7) was 2 µg/mL, the MIC50 (C. albicans SC5314 [1]; pH 4.5) was 32 µg/mL (≈ 13.8 µM) and the MIC100 (C. albicans SC5314 [1]; pH 4.5) was greater than 64 µg/mL. The MIC50 (C. albicans SC5314 [1]; pH 5) was 4 µg/mL (≈ 1.72 µM), the MIC100 (C. albicans SC5314 [1]; pH 5) was 8 µg/mL (≈ 3.45 µM) and the MIC50 (C. albicans SC5314 [1]; pH 5.5) was 1 µg/mL (≈ 0.431 µM). It also gave an MIC100 (C. albicans SC5314 [1]; pH 5.5) of 2 µg/mL (≈ 0.861 µM), an MIC50 (C. albicans SC5314 [1]; pH 6) of 2 µg/mL (≈ 0.861 µM) and an MIC100 (C. albicans SC5314 [1]; pH 6) of 2 µg/mL (≈ 0.861 µM). It also gave an MIC50 (C. albicans SC5314 [1]; pH 6.5) of 2 µg/mL (≈ 0.861 µM), an MIC100 (C. albicans SC5314 [1]; pH 6.5) of 2 µg/mL (≈ 0.861 µM) and an MIC50 (C. albicans SC5314 [1]; pH 7) of 2 µg/mL (≈ 0.861 µM). The MIC100 (C. albicans SC5314 [1]; pH 7) was 4 µg/mL (≈ 1.72 µM), the MIC100 (C. albicans SC5314 [2]; 10% (v/v) sterile filtered human saliva, pH 7.0) was 2 µg/mL and the “antifungal activity in the presence of filtered human saliva” value (C. albicans SC5314 [2]; filtered human saliva) was “retain antifungal activity”.
CCCCCCCCCCCCCCCC(=O)N[C@@H](CCCNC(=N)N)C(=O)N[C@@H](CCCNC(=N)N)C(=O)N[C@@H](CCCNC(=N)N)C(=O)N[C@@H](CCCNC(=N)N)C(=O)N[C@@H](CCCNC(=N)N)C(=O)N[C@@H](CCCNC(=N)N)C(=O)N[C@@H](CCCNC(=N)N)C(=O)N[C@@H](CCCNC(=N)N)C(=O)N[C@@H](CCCNC(=N)N)C(=O)N[C@@H](CCCNC(=N)N)C(=O)N[C@@H](CCCNC(=N)N)C(=O)N[C@@H](CCCNC(=N)N)C(=O)O [C16-(Rx12)] gave a CC50 at 3 h (in vitro) of 30 µg/mL (≈ 14.1 µM).
In the case of N=C(N)NCCC[C@H](NC(=O)[C@H](CCCNC(=N)N)NC(=O)[C@H](CCCNC(=N)N)NC(=O)[C@H](CCCNC(=N)N)NC(=O)[C@H](CCCNC(=N)N)NC(=O)[C@H](CCCNC(=N)N)NC(=O)[C@H](CCCNC(=N)N)NC(=O)[C@H](CCCNC(=N)N)NC(=O)[C@H](CCCNC(=N)N)NC(=O)[C@H](CCCNC(=N)N)NC(=O)[C@H](CCCNC(=N)N)NC(=O)[C@H](CCCNC(=N)N)NC(=O)[C@H](CCCNC(=N)N)NC(=O)[C@@H](N)CCCNC(=N)N)C(=O)O [Rx14], the CC50 at 3 h (in vitro) is reported as greater than 2500 µg/mL and the “Haemolysis RBCs % at 2500” value [3] is reported as 0%.
